Test results: PMC11521309, “A novel 4-aminoquinoline chemotype with multistage antimalarial activity and lack of cross-resistance with PfCRT and PfMDR1 mutants” (PLOS Pathogens, 2024)
Values joined by “and” are separate entries in the source; they are usually repeats but may differ in a detail not shown here. Equal values may be shown once. Read-outs that look alike come from different tables or passages of the source.

Experiments:
[1] = MTT cytotoxicity assay, 72 h; assay type: cell-based, Human; conditions: human, HepG2 cells; MTT, 72 h, N = 3
Procedure: (§1) Human hepatoma (HepG2) and fibroblast-like monkey kidney cells (COS-7) were cultured in Dulbecco’s Modified Eagle Medium supplemented with 10% heat-inactivated fetal bovine serum and gentamycin (40 mg/L) at 37°C in a 5% CO2 atmosphere. Cytotoxicity of test compounds was measured by metabolic reduction of mitochondrial enzymes using the MTT assay (3-[4,5-dimethyl-thiazol-2-yl]-2,5-diphenyltetrazolium chloride). Cells were seeded at 10^5 cells/well in 96-well plates and incubated for 72 hours in the presence of a 2-fold 12-point serial dilution of drugs along with drug-free controls. After adding 15 μL of MTT (5 mg/mL) to the wells, plates were centrifuged at 317g for 5 minutes and the pellet was resuspended in isopropanol. Absorbance was measured at 570 nm (CLARIOStar, Labtech BMG). Cell viability was determined by formazan production, and was expressed as a percentage of untreated control wells.

HepG2 cells = assay: MTT cytotoxicity assay, 72 h; assay type: cell-based, Human
Procedure: as §1

[2] = test system: P. berghei PbGFP-Luccon liver stage; assay: In vitro inhibition of liver stage infection of Huh-7 cells, bioluminescence; assay type: cell-based, Plasmodium berghei
Procedure: In vitro inhibition of Plasmodium liver stage infection was assessed using bioluminescence data from Huh-7 cells infected with a firefly-luciferase-expressing P. berghei line, PbGFP-Luccon, in the presence of various compound concentrations. […] One day before drug treatment and infection, 10^4 Huh-7 cells/well were seeded in 96-well plates. The medium was then replaced by an infection medium (culture medium supplemented with 50 μg/mL gentamycin and 0.8 μg/mL amphotericin B) containing desired concentrations of test compounds. Fresh sporozoites recovered from salivary glands of infected female Anopheles stephensi mosquitoes were added to seeded Huh-7 cells at a 1:1 proportion, followed by centrifugation at 1700g for 5 minutes and incubation for 46 hours at 37°C under 5% CO2. Compound toxicity against Huh-7 cells was assessed by measuring […] using the Alamar Blue assay (Invitrogen). IC50 values were calculated using nonlinear regression analysis (GraphPad Prism version 9).

P. falciparum 7G8^7G8 = assay: ABS susceptibility, pfcrt-edited line; assay type: cell-based; conditions: Plasmodium falciparum
Procedure: (§2) P. falciparum ABS parasites were cultured at 3% hematocrit in human O^+ RBCs in RPMI-1640 media supplemented with 25 mM HEPES, 50 mg/L hypoxanthine, 2 mM L-glutamine, 0.21% sodium bicarbonate, 0.5% (w/v) AlbuMAXII (Invitrogen) and 10 μg/mL gentamycin. Culture flasks were kept in modular incubator chambers (Billups-Rothenberg) in a 5% O2, 5% CO2, and 90% N2 atmosphere at 37°C. Synchronized ring-stage parasites were obtained by two consecutive rounds of treatment with 5% D-sorbitol in 48-hour intervals. […] This was done by exposing cultures at 1% hematocrit and 0.3% parasitemia in 96-well plates in the presence of drugs in a two-fold 10 or 12-point serial dilution in duplicate along with drug-free controls. After a 72-hour incubation, parasite survival was assessed by flow cytometry on an iQue flow cytometer (Sartorius) using SYBR Green and MitoTracker Deep Red FM (Life Technologies) as nuclear stain and vital dye, respectively. Parasite survival was determined as a percentage relative to drug-free control. IC50 values were interpolated from log concentration versus response curves in Prism 9 (GraphPad Prism Software Inc.).

P. falciparum 7G8^C350R = assay: ABS susceptibility, pfcrt-edited line; assay type: cell-based; conditions: Plasmodium falciparum
Procedure: as §2

P. falciparum 7G8^F145I = assay: ABS susceptibility, pfcrt-edited line; assay type: cell-based; conditions: Plasmodium falciparum
Procedure: as §2

P. falciparum Dd2^3D7 = assay: ABS susceptibility, pfcrt-edited line; assay type: cell-based; conditions: Plasmodium falciparum
Procedure: as §2

P. falciparum Dd2^Dd2 [3] = assay: ABS susceptibility, pfcrt-edited line; assay type: cell-based; conditions: Plasmodium falciparum
Procedure: as §2

P. falciparum Dd2^F145I = assay: ABS susceptibility, pfcrt-edited line; assay type: cell-based; conditions: Plasmodium falciparum
Procedure: as §2

P. falciparum Dd2^G353V = assay: ABS susceptibility, pfcrt-edited line; assay type: cell-based; conditions: Plasmodium falciparum
Procedure: as §2

P. falciparum Dd2^H97Y = assay: ABS susceptibility, pfcrt-edited line; assay type: cell-based; conditions: Plasmodium falciparum
Procedure: as §2

P. falciparum Dd2^I218F [4] = assay: ABS susceptibility, pfcrt-edited line; assay type: cell-based; conditions: Plasmodium falciparum
Procedure: as §2

P. falciparum Dd2^M343L = assay: ABS susceptibility, pfcrt-edited line; assay type: cell-based; conditions: Plasmodium falciparum
Procedure: as §2

P. falciparum Dd2^T93S = assay: ABS susceptibility, pfcrt-edited line; assay type: cell-based; conditions: Plasmodium falciparum
Procedure: as §2

P. falciparum NF10^NF = assay: ABS susceptibility, pfmdr1-modified line; assay type: cell-based; conditions: Plasmodium falciparum
Procedure: as §2

P. falciparum Dd2^Dd2 [5] = test system: P. falciparum Dd2^Dd2; design: key to Phenotype, Dd2^Dd2: S: sensitive; R: resistant; conditions: cited from earlier work
P. falciparum Dd2^I218F [6] = test system: P. falciparum Dd2^I218F; design: key to Phenotype, Dd2^I218F: S: sensitive; R: resistant; conditions: cited from earlier work
P. falciparum FCB^KD1 = test system: P. falciparum FCB^KD1; design: method as in ref 2 Sidhu et al. 2006; conditions: means ± SEM, N 4; ref 2 Sidhu et al. 2006; read-out: IC50 FCBKD1; cited from earlier work
[7] = Dd2I218F, mean ± SEM, ref 2 (Dhingra et al., 2019)

## COc1cc2nccc(Nc3cccc(Oc4ccccc4)c3)c2cc1OC [LDT-623]
[1]
  CC50 at 72 h: 1300 ± 100 nM
HepG2 cells
  SI (CC50 HepG2 / IC50 3D7): 10
[2]; 0.01 µM, Average
  % Infection: 105.58%
[2]; 0.01 µM, Rep #1, Rep #2 singly, DMSO = 100
  % Infection: 99.71% and 111.44%
[2]; 0.10 µM, Average
  % Infection: 109.90%
[2]; 0.10 µM, Rep #1, Rep #2 singly, DMSO = 100
  % Infection: 116.90% and 102.90%
[2]; 0.50 µM, Average
  % Infection: 89.46%
[2]; 0.50 µM, Rep #1, Rep #2 singly, DMSO = 100
  % Infection: 98.58% and 80.35%
[2]; 1.00 µM, Average
  % Infection: 47.89%
[2]; 1.00 µM, Rep #1, Rep #2 singly, DMSO = 100
  % Infection: 59.84% and 35.94%
[2]; 1.50 µM, Average
  % Infection: 16.43%
[2]; 1.50 µM, Rep #2 only, DMSO = 100
  % Infection: 16.43%
[2]; 2.00 µM, Average
  % Infection: 10.50%
[2]; 2.00 µM, Rep #1, Rep #2 singly, DMSO = 100
  % Infection: 13.79% and 7.22%
[2]; 3.00 µM, Average
  % Infection: 3.61%
[2]; 3.00 µM, Rep #1, Rep #2 singly, DMSO = 100
  % Infection: 5.04% and 2.18%
[2]; 4.00 µM, Average
  % Infection: 3.01%
[2]; 4.00 µM, Rep #1 only, DMSO = 100
  % Infection: 3.01%
[2]; Plasmodium berghei, Huh-7, 1 μM, read-out: inhibition of hepatic infection
  inhibition at 1 µM: 52.1%
[2]; Plasmodium berghei, Huh-7 cells, P. berghei sporozoites, 48h, N = 2, read-out: IC50 hepatic stage infection
  IC50: 983 nM
P. falciparum 7G8^7G8
  IC50: 579 ± 67.5 nM
  IC90: 980 ± 133 nM
P. falciparum 7G8^C350R
  IC50: 576 ± 49.4 nM
  IC90: 4.05 ± 3.08 µM
P. falciparum 7G8^F145I
  IC50: 439 ± 22.7 nM
  IC90: 6.57 ± 3.25 µM
P. falciparum Dd2^3D7
  IC50: 232 ± 10.5 nM
  IC90: 455 ± 51.1 nM
P. falciparum Dd2^Dd2 [3]
  IC50: 452 ± 31 nM
  IC90: 6.33 ± 1.66 µM
P. falciparum Dd2^F145I
  IC50: 541 ± 83.7 nM
  IC90: 3.79 ± 1.73 µM
P. falciparum Dd2^G353V
  IC50: 456 ± 9.6 nM
  IC90: 6.51 ± 1.54 µM
P. falciparum Dd2^H97Y
  IC50: 416 ± 59.6 nM
  IC90: 5.27 ± 0.0992 µM
P. falciparum Dd2^I218F [4]
  IC50: 435 ± 20.1 nM
  IC90: 3.98 ± 1.68 µM
P. falciparum Dd2^M343L
  IC50: 416 ± 50 nM
  IC90: 6.86 ± 0.333 µM
P. falciparum Dd2^T93S
  IC50: 227 ± 9 nM
  IC90: 429 ± 41.7 nM
P. falciparum NF10^NF; read-out: IC50 NF10NF
  IC50: 400 ± 28.2 nM
P. falciparum NF10^NF; read-out: IC90 NF10NF
  IC90: 580 ± 13 nM

## CCN(CC)CCCC(C)Nc1ccnc2cc(Cl)ccc12 (stereo not drawn) [CQ, chloroquine]
P. falciparum Dd2^Dd2 [5]; Dd2Dd2, mean ± SEM, ref 1 (Ross et al., 2018)
  IC50: 156 ± 9.3 nM
P. falciparum Dd2^Dd2 [5]; Dd2Dd2, mean ± SEM, ref 2 (Dhingra et al., 2019)
  IC90: 214 ± 7.4 nM
P. falciparum Dd2^Dd2 [5]; ref [19],[20],[51]
  Phenotype, Dd2^Dd2: R
P. falciparum Dd2^I218F [6]; [7]
  IC50: 36.7 ± 4.3 nM
  IC90: 85.3 ± 4.9 nM
P. falciparum Dd2^I218F [6]; ref [19],[20],[51]
  Phenotype, Dd2^I218F: S
P. falciparum FCB^KD1
  IC50: 242 ± 43.9 nM
